The record followed here is ChEMBL document CHEMBL1133884, “Microwave-assisted [6+4]-cycloaddition of fulvenes and alpha-pyrones to azulene-indoles: facile syntheses of novel antineoplastic agents” (Bioorg Med Chem Lett, 2001).

As usually defined, the IC50 is the midpoint of a concentration-inhibition curve. Read a low IC50 as greater potency in that assay.

One assay concerns A498. As to the kind of experiment: In vitro inhibitory concentration against renal cancer cell line A498. The class given is functional, cell-based. As to conditions: Homo sapiens.
Assay [1] can be described thus: Average inhibitory concentration against 60 human cell lines was reported. The format is functional.
For the next assay, the system named is CAKI-1. In words: In vitro inhibitory concentration against renal cancer cell line […]. The class given is functional, cell-based. The following applies: Homo sapiens.
Another assay has as its system HOP-92. As to the kind of experiment: In vitro inhibitory concentration against non small cell lung HOP-92 cell line. The class given is functional, cell-based. As to conditions: Homo sapiens.
In another assay the test system is PC-3. In words: In vitro inhibitory concentration against prostate cancer cell line PC-3. The following applies: Homo sapiens. The class given is functional, cell-based.
The subject of a further assay is EKVX. As to the kind of experiment: In vitro inhibitory concentration against non small cell lung EKVX cell line. As to conditions: Homo sapiens. The format is functional, cell-based.
The next assay relates to T47D. As to the kind of experiment: In vitro inhibitory concentration against breast cancer cell line T-47D. The class given is functional, cell-based. As to conditions: Homo sapiens.
The next assay relates to UACC-257. As to the kind of experiment: In vitro inhibitory concentration against melanoma cell line UACC-257. The class given is functional, cell-based. As to conditions: Homo sapiens.
The next assay has as its system Hs-578T. As to the kind of experiment: In vitro inhibitory concentration against breast cancer cell line Hs 578.T. The class given is functional, cell-based. The following applies: Homo sapiens.
For a further assay, the system named is NCI-H322M. As to the kind of experiment: In vitro inhibitory concentration against non small cell lung NCI-H322M cell line. The format is functional, cell-based. As to conditions: Homo sapiens.
For a further assay, the system named is K562. As to the kind of experiment: In vitro inhibitory concentration against leukemia cell line K-562. The format is functional, cell-based. As to conditions: Homo sapiens.
For a further assay, the system named is NCI-H226. In words: In vitro inhibitory concentration against non small cell lung NCI-H226 cell line. The following applies: Homo sapiens. The format is functional, cell-based.
The next assay relates to IGROV-1. As to the kind of experiment: In vitro inhibitory concentration against ovarian cancer cell line IGROV1. The following applies: Homo sapiens. The class given is functional, cell-based.
The test system of the next assay is SR. In words: In vitro inhibitory concentration against leukemia cell line SR. The format is functional, cell-based. The following applies: Homo sapiens.
Another assay concerns U-251. In words: In vitro inhibitory concentration against CNS cancer cell line U251. As to conditions: Homo sapiens. The format is functional, cell-based.
Another assay relates to UO-31. As to the kind of experiment: In vitro inhibitory concentration against renal cancer cell line UO-31. The format is functional, cell-based. The following applies: Homo sapiens.

As to `Cc1c2cccc-2c(N(C)C)cc2c1[nH]c1ccccc12`, the half-maximal inhibitory concentration (IC50) with A498 worked out at 20900 nM; in assay [1], 3980 nM; in the assay with CAKI-1 it was 17400 nM; with HOP-92, 560 nM; with PC-3 it was 1410 nM.

As for `Cc1c2cccc-2ccc2c1[nH]c1ccc(Br)cc12`, the 50% inhibitory concentration (IC50) in the assay on A498 is 21900 nM; in assay [1] it was 5370 nM; in the assay with EKVX, 1780 nM; in the assay on T47D it was 1700 nM; in the assay with UACC-257, 24000 nM.

As to `Cc1c2cccc-2c(OCCO)cc2c1[nH]c1ccccc12`, the half-maximal inhibitory concentration (IC50) stood at 13800 nM in the assay with A498; 2510 nM in assay [1]; 1000 nM with EKVX; 930 nM with Hs-578T; 17000 nM in the assay with NCI-H322M.

In the case of `CC(=O)OCCOc1cc2c([nH]c3ccccc32)c(C)c2cccc1-2`, the concentration for half-maximal inhibition (IC50) in assay [1] was 2750 nM; with HOP-92, 1380 nM; in the assay on K562, 510 nM; in the assay with NCI-H226 it was 11200 nM; in the assay on NCI-H322M, 14500 nM.

Consider `CC(=O)Oc1ccc2[nH]c3c(C)c4cccc-4ccc3c2c1`, for which the IC50 was determined as 2190 nM in assay [1]; 1580 nM in the assay with IGROV-1; 3800 nM with K562; 1380 nM with NCI-H226; 4570 nM with SR.

For the molecule `Cc1c2cccc-2ccc2c1[nH]c1ccccc12`, the half-inhibitory concentration (IC50) with A498 came out at 11700 nM; in assay [1], 2400 nM; with CAKI-1 it was 6600 nM; in the assay with U-251, 1480 nM; in the assay with UO-31 it was 1620 nM.
